According to a compilation of properties of binary mixtures (doi:10.1016/j.jct.2015.07.015):

Experiment: xn = mol fraction of the nth substance listed
Details: 101 kPa

C=CC[n+]1ccn(C)c1.[Cl-] + O
viscosity [mPa·s]
Details | 298.15 K | 303.15 K | 313.15 K | 323.15 K | 328.15 K | 333.15 K | 343.15 K | 353.15 K | 363.15 K | 373.15 K
x2 = 0.045 | 1884 | 1137 | – | 232 | 167 | 124 | 73 | 46.2 | 31.2 | 22.21
x2 = 0.091 | 1416 | 891 | 392 | 196 | 144 | – | 64.9 | 41.8 | – | 20.53
x2 = 0.126 | 1090 | 691 | – | 164 | 123 | 92 | 56.3 | – | – | –
x2 = 0.152 | 887 | 580 | 270 | 147 | 108 | 84 | 51.7 | 34.3 | 24 | 17.6
x2 = 0.193 | – | 459 | 221 | 121 | 91 | 71 | 45 | 30.4 | 21.6 | –
x2 = 0.267 | – | 293 | 151 | 86 | 67.1 | 53.1 | 35 | – | 17.7 | –
x2 = 0.335 | 259 | – | 101 | – | 48.6 | 39.3 | 26.8 | 19.2 | 14.26 | 10.98

CC(=O)[O-].CC[n+]1ccn(C)c1 + O
viscosity [mPa·s]
Details | 298.15 K | 303.15 K | 313.15 K | 323.15 K | 333.15 K | 343.15 K | 353.15 K | 363.15 K | 373.15 K
x2 = 0.072 | 124 | 92 | 55.4 | 35.4 | 24.3 | 17.63 | 13.21 | – | 8.19
x2 = 0.102 | 119 | 89 | 53.6 | 34.5 | 23.8 | 17.23 | – | – | 8.07
x2 = 0.132 | 112 | – | 51.1 | – | 22.9 | 16.73 | – | – | 7.86
x2 = 0.188 | 100 | 76 | – | 30.6 | – | 15.69 | – | 9.32 | –
x2 = 0.266 | – | 66 | 41.8 | 27.7 | – | 14.44 | 11 | 8.67 | 6.98
x2 = 0.355 | 75 | 58 | 36.9 | 24.8 | 17.7 | – | – | 8 | 6.47
